# From patent publication US7767665B2, “1,3-benzothiazinone derivatives and use thereof” (Takeda Pharmaceutical Company Limited, priority 2001, dated 2010)
row,SMILES,melting point
1,"CSc1nccc(-c2nc(=O)c3ccccc3s2)n1 [Example 284, 2-[2-(Methylthio)-6-pyrimidinyl]-4H-1,3-benzothiazine-4-one]",223.5 to 224 °C
2,"Cc1cc(CCC(=O)O)cc(-c2nc(=O)c3ccc(Cl)cc3s2)n1 [Example 322, 3-[2-(7-Chloro-4-oxo-4H-1,3-benzothiazin-2-yl)-6-methyl-4-pyridyl]propionic acid]",273.5 °C (dec.)
3,"O=c1nc(-c2cccc(CN3CCC(Cc4ccccc4)CC3)n2)sc2ccccc12 [Example 268, 2-{6-[(4-Benzyl-1-piperidyl)methyl]-2-pyridyl}-4H-1,3-benzo thiazine-4-one]",151 to 153 °C
4,"NC(=O)CCc1ccnc(-c2nc(=O)c3ccccc3s2)c1 [Example 331, 3-[6-(4-Oxo-4H-1,3-benzothiazin-2-yl)-4-pyridyl]propanamide]",237 to 239.7 °C
5,"O=C(O)/C=C/c1ccnc(-c2nc(=O)c3ccccc3s2)c1 [Example 310, (E)-3-[2-(4-Oxo-4H-1,3-benzothiazin-2-yl)-4-pyridyl]acrylic acid]",284.3 to 285 °C
6,"O=C(O)CCc1ccnc(-c2nc(=O)c3ccccc3s2)c1 [Example 308, 3-[2-(4-Oxo-4H-1,3-benzothiazin-2-yl)-4-pyridyl]propionic acid]",215.3 to 215.9 °C
7,"CC(C)(C)OC(=O)CCOCc1cccc(-c2nc(=O)c3ccccc3s2)n1 [Example 336, tert-Butyl 3-[(6-(4-oxo-4H-1,3-benzothiazin-2-yl)-2-pyridyl)methoxy]propanoate]",84.7 to 84.9 °C
8,O=c1nc(-c2cccc(CN3CCC(O)(c4ccc(Cl)cc4)CC3)n2)sc2ccccc12,151 to 153 °C
9,"O=C(NC1CC1)c1ccc2c(=O)nc(-c3ccccn3)sc2c1 [Example 239, N-Cyclopropyl-4-oxo-2-(2-pyridyl)-4H-1,3-benzothiazine-7-carboxamide]",272.1 to 274.1 °C
10,"CS(=O)(=O)c1cc(-c2nc(=O)c3ccccc3s2)ccn1 [Example 264, 2-[2-(Methylsulfonyl)-4-pyridyl]-4H-1,3-benzothiazine-4-one]",189.5 to 191.5 °C
11,"O=c1nc(-c2cccc(S(=O)(=O)CCCc3ccccc3)n2)sc2ccccc12 [Example 166, 2-[6-[(3-Phenylpropyl)sulfonyl]-2-pyridyl]-4H-1,3-benzothiazine-4-one]",149.5 to 151 °C
12,"CC(C)Oc1ccc(-c2nc(=O)c3ccccc3s2)cn1 [Example 93, 2-[6-Isopropoxy-3-pyridyl]-4H-1,3-benzothiazine-4-one]",109.7 to 110.4 °C
13,"O=c1nc(-c2ccc(N3CCCC3)nc2)sc2ccccc12 [Example 33, 2-[6-(1-Pyrrolidinyl)-3-pyridyl]-4H-1,3-benzothiazine-4-one]",221 to 223.1 °C
14,Cc1cc(C)c2sc(-c3cccc(CCCOCCC(=O)O)n3)nc(=O)c2c1 [Example 88],156.5 to 157.1 °C
15,"CC(C)(C)OC(=O)CCc1cccc(-c2nc(=O)c3ccc(Cl)cc3s2)n1 [Example 5, tert-Butyl 3-[6-(7-chloro-4-oxo-4H-1,3-benzothiazin-2-yl)-2-pyridyl]propanoate]",167.9 to 168.2 °C
16,"O=c1nc(-c2cccc(-c3cccs3)n2)sc2ccccc12 [Example 193, 2-[6-(2-Thienyl)-2-pyridyl]-4H-1,3-benzothiazin-4-one]",222.2 to 223.4 °C
17,"CCS(=O)(=O)c1cccc(-c2nc(=O)c3ccccc3s2)n1 [Example 150, 2-[6-(Ethylsulfonyl)-2-pyridyl]-4H-1,3-benzothiazine-4-one]",201.5 to 203 °C
18,"O=c1nc(-c2ccc(Sc3ccc(Cl)cc3)nc2)sc2ccccc12 [Example 36, 2-{6-[(4-Chlorophenyl)thio]-3-pyridyl}-4H-1,3-benzothiazine-4-one]",221.5 to 222 °C
19,"O=c1nc(-c2cc(-c3ccccc3)ccn2)sc2ccccc12 [Example 137, 2-(4-Phenyl-2-pyridyl)-4H-1,3-benzothiazine-4-one]",164.4 to 164.7 °C
20,"Cc1ccc(Sc2ccc(-c3nc(=O)c4ccccc4s3)cn2)cc1 [Example 90, 2-[2-(4-Methyl)phenylthio-3-pyridyl]-4H-1,3-benzothiazine-4-one]",172.6 to 172.8 °C
21,"CC(C)(C)OC(=O)CCc1cc(C#N)nc(-c2nc(=O)c3ccccc3s2)c1 [Example 355, tert-Butyl 3-[2-cyano-6-(4-oxo-4H-1,3-benzothiazin-2-yl)-4-pyridyl]propanoate]",189.9 to 190.7 °C
22,"O=c1nc(-c2ccc(N3CCCCC3)nc2)sc2ccccc12 [Example 34, 2-[6-(1-Piperidino)-3-pyridyl]-4H-1,3-benzothiazine-4-one]",191.2 to 191.7 °C
23,"CCOC(=O)c1cccc(-c2nc(=O)c3ccccc3s2)n1 [Example 26, Ethyl 6-(4-oxo-4H-1,3-benzothiazin-2-yl)-2-pyridinecarboxylate]",170 to 172.2 °C
24,"CC(C)(C)OC(=O)NCCc1ccnc(-c2nc(=O)c3ccccc3s2)c1 [Example 218, tert-Butyl 2-[2-(4-oxo-4H-1,3-benzothiazin-2-yl)-4-pyridyl]ethylcarbamate]",159.8 to 161 °C
25,"O=c1nc(-c2ccco2)sc2ccccc12 [Example 1, 2-(2-Furyl)-4H-1,3-benzothiazine-4-one]",170 to 171.5 °C

row,SMILES,melting point
1,"O=c1nc(-c2cccc(CN3CCOCC3)n2)sc2ccccc12 [Example 170, 2-[6-(4-Morpholinomethyl)-2-pyridyl]-4H-1,3-benzothiazine-4-one]",191.8 °C (dec.)
2,"O=c1nc(-c2ccccn2)sc2ccc(Br)cc12 [Example 11, 6-Bromo-2-(2-pyridyl)-4H-1,3-benzothiazine-4-one]",253 to 253.7 °C
3,"CN(C(=O)OC(C)(C)C)c1cccc(-c2nc(=O)c3ccccc3s2)n1 [Example 108, tert-Butyl methyl[6-(4-oxo-4H-1,3-benzothiazin-2-yl)-2-pyridyl]carbamate]",195.6 to 196.3 °C
4,"CC(C)(C)OC(=O)CCc1cc(-c2nc(=O)c3ccccc3s2)nc(S(C)(=O)=O)c1 [Example 345, tert-Butyl 3-[2-(methylsulfonyl)-6-(4-oxo-4H-1,3-benzothiazin-2-yl)-4-pyridyl]propanoate]",223 °C (dec.)
5,"C[S+]([O-])c1cccc(-c2nc(=O)c3ccccc3s2)n1 (stereo not shown) [Example 44, 2-(6-Methylsulfinyl-2-pyridyl)-4H-1,3-benzothiazine-4-one]",256.5 °C (dec.)
6,CC(C)CCSc1ccc(-c2nc(=O)c3ccccc3s2)cn1 [Example 92],92.8 to 93.1 °C
7,"O=c1nc(-c2ccccn2)sc2ccc(OCCCc3ccccc3)cc12 [Example 120, 6-(3-Phenylpropoxy)-2-(2-pyridyl)-4H-1,3-benzothiazine-4-one]",170 to 170.3 °C
8,"O=c1nc(-c2cccc(Sc3ccncc3)n2)sc2ccccc12 [Example 274, 2-[6-(4-Pyridylthio)-2-pyridyl]-4H-1,3-benzothiazine-4-one]",245.2 to 245.8 °C
9,"O=c1nc(-c2ccc(NCc3ccccc3)nc2)sc2ccccc12 [Example 32, 2-[6-(Benzylamino)-3-pyridyl]-4H-1,3-benzothiazine-4-one]",194.3 to 196.2 °C
10,"O=c1cccc(-c2nc(=O)c3ccccc3s2)[nH]1 [Example 326, 2-(6-Oxo-1,6-dihydro-2-pyridyl)-4H-1,3-benzothiazine-4-one]",214.2 to 215.3 °C
11,"O=C(O)CCc1cccc(-c2nc(=O)c3ccc(F)cc3s2)n1 [Example 182, 3-[6-(7-Fluoro-4-oxo-4H-1,3-benzothiazin-2-yl)-2-pyridyl]propionic acid]",215 to 217 °C
12,"O=C(O)/C=C/c1cccc(-c2nc(=O)c3ccccc3s2)n1 [Example 148, (E)-3-[6-(4-oxo-4H-1,3-benzothiazin-2-yl)-2-pyridyl]-2-prop enoic acid]",115.6 to 115.7 °C
13,"O=c1nc(-c2ccnc(-c3cccs3)c2)sc2ccccc12 [Example 75, 2-[2-(2-Thienyl)-4-pyridyl]-4H-1,3-benzothiazine-4-one]",160.4 to 161.1 °C
14,"CC(C)(C)OC(=O)NCc1cccc(-c2nc(=O)c3ccccc3s2)n1 [Example 202, tert-Butyl [6-(4-Oxo-4H-1,3-benzothiazin-2-yl)-2-pyridyl]methylcarbamate]",160 to 162.1 °C
15,"Cc1cccnc1-c1nc(=O)c2ccccc2s1 [Example 8, 2-(3-Methyl-2-pyridyl)-4H-1,3-benzothiazine-4-one]",149.9 to 151.6 °C
16,"Nc1ccnc(-c2nc(=O)c3ccccc3s2)c1 [Example 142, 2-(4-Amino-2-pyridyl)-4H-1,3-benzothiazine-4-one]",207.6 to 207.9 °C
17,CCOP(=O)(CCc1ccnc(-c2nc(=O)c3ccccc3s2)c1)OCC,102 to 103.2 °C
18,"Cc1ccnc(-c2cc(C)cc(-c3nc(=O)c4ccccc4s3)n2)c1 [Example 200, 2-[6-(4,4′-Dimethyl-2,2′-bipyridyl)]-4H-1,3-benzothiazine-4-one]",234.9 to 235.2 °C
19,"COc1cccc2c(=O)nc(-c3ccccn3)sc12 [Example 18, 8-Methoxy-2-(2-pyridyl)-4H-1,3-benzothiazine-4-one]",191.2 to 191.4 °C
20,"CCCNc1ccc(-c2nc(=O)c3ccccc3s2)cn1 [Example 31, 2-[6-(Propylamino)-3-pyridyl]-4H-1,3-benzothiazine-4-one]",210.1 to 210.6 °C
21,"CN(CC(=O)OC(C)(C)C)c1nccc(-c2nc(=O)c3ccccc3s2)n1 [Example 293, tert-Butyl {methyl [6-(4-oxo-4H-1,3-benzothiazin-2-yl)-2-pyrimidinyl]amino}acetate]",186.5 to 188 °C
22,"O=C(O)CS(=O)(=O)c1cccc(-c2nc(=O)c3ccccc3s2)n1 [Example 281, [6-(4-Oxo-4H-1,3-benzothiazin-2-yl)-2-pyridyl]sulfonylacetic acid]",192 to 193.5 °C
23,"CC[S+]([O-])Cc1cccc(-c2nc(=O)c3ccccc3s2)n1 (stereo not shown) [Example 250, 2-[6-[(Ethylsulfinyl)methyl]-2-pyridyl]-4H-1,3-benzothiazine-4-one]",188.5 to 190 °C
24,"CC(=O)OCCCc1cccc(-c2nc(=O)c3ccccc3s2)n1 [Example 301, 3-[6-(4-Oxo-4H-1,3-benzothiazin-2-yl)-2-pyridyl]propyl acetate]",141.3 to 141.6 °C
